Experimental data: patent US9144239B2, “Macrocyclic picolinamides as fungicides” (DOW AGROSCIENCES LLC, priority 2012, dated 2015)
Like-named read-outs stand apart in the source and are kept apart here.

Key:
[1] = tested on: Mycosphaerella graminicola; anamorph: Septoria tritici; assay: Fungicidal activity: leaf blotch of wheat (SEPTTR), wheat seedlings; assay type: in vivo; details: Zymoseptoria tritici
How it was run: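 Percent control derives from disease severity on treated versus untreated first leaves, rated 0–100% when symptoms were fully expressed on untreated plants. Yuma seedlings were inoculated with S. tritici spores either before or after spraying to run-off. The spray was acetone solution diluted 1:9 in water with 110 ppm Triton X-100. Infection took place in 100% RH dew chambers, then a 20 °C greenhouse.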

[2] = tested on: Puccinia triticina; synonym: Puccinia recondita f. sp. tritici; assay: Fungicidal activity: wheat brown rust (PUCCRT), wheat seedlings; assay type: in vivo
How it was run: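 Wheat (Yuma) seedlings at first-leaf stage, inoculated with Puccinia triticina spores before or after treatment, held overnight in dark dew room at 22° C, 100% RH, then greenhouse at 24° C. Acetone solutions diluted with nine volumes water containing 110 ppm Triton X-100, sprayed to run-off. Percent disease control derived from severity (0–100%) relative to untreated plants.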

[3] = tested on: Puccinia triticina; synonym: Puccinia recondita f. sp. tritici; assay: Fungicide mobility (dropline mobility test): wheat brown rust (PUCCRT); assay type: in vivo; details: 1 ug/leaf
Experimental: Evaluation of Fungicide Mobility: Wheat Brown Rust (Puccinia triticina; Synonym: Puccinia recondita f. sp. tritici; Bayer Code PUCCRT) “Yuma” wheat seedlings were used in the test. One mg of compound was dissolved in 9 μl of EC blank (emulsifiable concentrate) and 500 μl of acetone. Acetone was then evaporated overnight by leaving the vial open in a fume hood. Two milliliters of water containing 110 ppm Triton X-100 was added to each vial to prepare application solutions. A 2 μl drop of formulated material was applied to a marked line on the adaxial surface 5 cm from the leaf tip of the primary leaves. The primary leaves were kept in a horizontal position. Each treatment had 6 replicates. Plants were inoculated with PUCCRT 1-day after (1DPM) or 3-day prior to (3DCM) compound applications. When rust was fully expressed on primary leaves on control plants, the zone of treated leaves that was disease-free in the acropetal direction was measured with a ruler and converted to percent of the distance from marked line to leaf tip.

[4] = 24 h, read-out: Disease Control SEPTTR 1DP
[5] = 72 h, read-out: Disease Control SEPTTR 3DC
[6] = 72 h, read-out: Disease Control PUCCRT 3DC
[7] = 24 h, read-out: Disease Control PUCCRT 1DP
[8] = 24 h, 1 Day Protectant Mobility, read-out: Dropline Mobility Test PUCCRT 1DPM
[9] = 72 h, 3 Day Curative Mobility, read-out: Dropline Mobility Test PUCCRT 3DCM
[10] = 24 h, 100 ppm, 1 Day Protectant, wheat, read-out: Disease Control SEPTTR 1DP
[11] = 72 h, 100 ppm, 3 Day Curative, wheat, read-out: Disease Control SEPTTR 3DC
[12] = 24 h, 100 ppm, 1 Day Protectant, wheat, read-out: Disease Control PUCCRT 1DP
[13] = 72 h, 100 ppm, 3 Day Curative, wheat, read-out: Disease Control PUCCRT 3DC

## CCCO[C@H]1[C@H](C)OC(=O)[C@@H](N)COC[C@@H]1Oc1ccccc1.Cl
other
  melting point: 217 to 219 °C

## CCCCO[C@H]1COC[C@H](NC(=O)c2nccc(OC)c2O)C(=O)O[C@@H](C)[C@@H]1OCCOC [Compound 52, N-((3S,7S,8S,9S)-7-butoxy-8-(2-methoxyethoxy)-9-methyl-2-oxo-1,5-dioxonan-3-yl)-3-hydroxy-4-methoxypicolinamide]
[1]; [4]
  pest or weed control at 100 ppm: 0 to 80%
[1]; [5]
  pest or weed control at 100 ppm: 0 to 80%
[2]; [6]
  pest or weed control at 100 ppm: 80 to 100%
other
  melting point: 75 to 77 °C

## C[C@@H]1OC(=O)[C@@H](N)COC[C@H](Oc2ccccc2)[C@H]1OC1CCCC1.Cl
other
  melting point: 217 to 219 °C

## C=C(C)CO[C@@H]1[C@@H](OCC(=C)C)COC[C@H](NC(=O)OCc2ccccc2)C(=O)O[C@H]1CC [Compound 88, benzyl ((3S,7S,8S,9S)-9-ethyl-7,8-bis((2-methylallyl)oxy)-2-oxo-1,5-dioxonan-3-yl)carbamate]
other
  melting point: 108 to 110 °C

## C[C@@H]1OC(=O)[C@@H](N(C(=O)OC(C)(C)C)C(=O)OC(C)(C)C)COC[C@H](O)[C@H]1Oc1ccccc1 [Compound 249]
other
  melting point: 110 to 112 °C

## C=C(C)CO[C@H]1[C@H](C)OC[C@H](NC(=O)OCc2ccccc2)C(=O)OC[C@@H]1OCC(=C)C [Compound 127]
other
  melting point: 79 to 81 °C

## Cc1cc(C)cc(O[C@H]2[C@H](C)OC(=O)[C@@H](N)COC[C@@H]2Oc2cc(C)cc(C)c2)c1.Cl
other
  melting point: 212 °C

## CCCO[C@H]1[C@H](C)OC(=O)[C@@H](NC(=O)c2nccc(OC)c2O)COC[C@@H]1OCCC [Compound 58, 3-hydroxy-4-methoxy-N-((3S,7S,8S,9S)-9-methyl-2-oxo-7,8-dipropoxy-1,5-dioxonan-3-yl)picolinamide]
[1]; [4]
  pest or weed control at 100 ppm: 0 to 80%
[1]; [5]
  pest or weed control at 100 ppm: 0 to 80%
[2]; [7]
  pest or weed control at 100 ppm: 80 to 100%
[2]; [6]
  pest or weed control at 100 ppm: 80 to 100%
[3]; [8]
  pest or weed control at 1 µg/leaf: 80 to 100%
[3]; [9]
  pest or weed control at 1 µg/leaf: 0 to 80%

## COc1ccc(O[C@H]2[C@H](C)OC(=O)[C@@H](N)COC[C@@H]2OC(=O)C(C)C)cc1.Cl
other
  melting point: 207 to 208 °C

## CC(C)CO[C@H]1[C@H](C)OC(=O)[C@@H](N)COC[C@@H]1OCC(C)C [Compound 160, (3S,7S,8S,9S)-3-amino-7,8-diisobutoxy-9-methyl-1,5-dioxonan-2-one]
other
  melting point: 144 to 146 °C

## CC(C)CO[C@H]1[C@H](C)OC(=O)[C@@H](N(C(=O)OC(C)(C)C)C(=O)OC(C)(C)C)COC[C@@H]1Oc1ccc(F)cc1 [Compound 246]
other
  melting point: 108 °C

## C[C@@H]1OC(=O)[C@@H](NC(=O)OC(C)(C)C)COC[C@H](OCc2ccccc2)[C@H]1OCc1ccccc1 [Compound 93, tert-butyl ((3S,7S,8S,9S)-7,8-bis(benzyloxy)-9-methyl-2-oxo-1,5-dioxonan-3-yl)carbamate]
other
  melting point: 69 to 71 °C

## C[C@@H]1OC(=O)[C@@H](N)COC[C@H](OCC2CC2)[C@H]1OCC1CC1.Cl
other
  melting point: 181 to 185 °C

## COCCC(=O)Oc1c(OC)ccnc1C(=O)N[C@H]1COC[C@H](Oc2ccccc2)[C@@H](Oc2ccccc2)[C@H](C)OC1=O [Compound 235]
[1]; [10]
  pest or weed control at 100 ppm: 80 to 100%
[1]; [11]
  pest or weed control at 100 ppm: 80 to 100%
[2]; [12]
  pest or weed control at 100 ppm: 80 to 100%
[2]; [13]
  pest or weed control at 100 ppm: 80 to 100%
[3]; [8]
  pest or weed control at 1 µg/leaf: 0 to 80%

## COc1ccnc(C(=O)N[C@H]2COC[C@H](OCCC(C)C)[C@@H](OCCC(C)C)[C@H](C)OC2=O)c1O [Compound 210, N-((3S,7S,8S,9S)-7,8-bis(isopentyloxy)-9-methyl-2-oxo-1,5-dioxonan-3-yl)-3-hydroxy-4-methoxypicolinamide]
other
  melting point: 61 to 70 °C

## COc1ccnc(C(=O)N[C@H]2COC[C@H](OCC(C)C)[C@@H](O)[C@H](C)OC2=O)c1O [Compound 70]
[1]; [10]
  pest or weed control at 100 ppm: 0 to 80%
[1]; [11]
  pest or weed control at 100 ppm: 0 to 80%
[2]; [12]
  pest or weed control at 100 ppm: 0 to 80%
[2]; [13]
  pest or weed control at 100 ppm: 0 to 80%
[3]; [8]
  pest or weed control at 1 µg/leaf: 0 to 80%
[3]; [9]
  pest or weed control at 1 µg/leaf: 0 to 80%

## COc1ccc(O[C@H]2COC[C@H](N)C(=O)O[C@@H](C)[C@@H]2OC(=O)C(C)C)cc1.Cl
other
  melting point: 197 to 198 °C

## CCCCCO[C@H]1[C@H](C)OC(=O)[C@@H](NC(=O)c2nccc(OC)c2O)COC[C@@H]1OCCCCC [Compound 62]
[1]; [11]
  pest or weed control at 100 ppm: 80 to 100%
[2]; [13]
  pest or weed control at 100 ppm: 80 to 100%
[3]; [8]
  pest or weed control at 1 µg/leaf: 0 to 80%

## C=C(C)CO[C@H]1[C@H](C)OC(=O)[C@@H](NC(=O)OCc2ccccc2)COC[C@@H]1OCC(=C)C [Compound 126, benzyl (3S,7S,8S,9S)-9-methyl-7,8-bis(2-methylallyloxy)-2-oxo-1,5-dioxonan-3-ylcarbamate]
other
  melting point: 90 to 91 °C

## COc1ccnc(C(=O)N[C@H]2COC[C@H](OC3CCCCC3)[C@@H](OCC(C)C)[C@H](C)OC2=O)c1OCOC(C)=O [Compound 76]
[1]; [10]
  pest or weed control at 100 ppm: 80 to 100%
[1]; [11]
  pest or weed control at 100 ppm: 80 to 100%
[2]; [12]
  pest or weed control at 100 ppm: 80 to 100%
[2]; [13]
  pest or weed control at 100 ppm: 80 to 100%
[3]; [8]
  pest or weed control at 1 µg/leaf: 80 to 100%
[3]; [9]
  pest or weed control at 1 µg/leaf: 0 to 80%

## CCCCO[C@H]1COC[C@H](N)C(=O)O[C@@H](C)[C@@H]1OCc1ccccc1.Cl
other
  melting point: 174 to 177 °C

## C[C@@H]1OC(=O)[C@@H](N)COC[C@H](Oc2ccccc2)[C@H]1Oc1ccccc1.Cl
other
  melting point: 227 to 229 °C

## COc1ccnc(C(=O)N[C@H]2COC[C@H](OC3CCCCC3)[C@@H](O)[C@H](C)OC2=O)c1O [Compound 74]
[1]; [10]
  pest or weed control at 100 ppm: 0 to 80%
[1]; [11]
  pest or weed control at 100 ppm: 0 to 80%
[2]; [12]
  pest or weed control at 100 ppm: 0 to 80%
[2]; [13]
  pest or weed control at 100 ppm: 0 to 80%
[3]; [8]
  pest or weed control at 1 µg/leaf: 0 to 80%
[3]; [9]
  pest or weed control at 1 µg/leaf: 0 to 80%

## Cc1ccc(O[C@H]2[C@H](C)OC(=O)[C@@H](N)COC[C@@H]2Oc2ccc(C)cc2)cc1.Cl
other
  melting point: 213 to 216 °C

## COc1ccnc(C(=O)N[C@H]2COC[C@H](OCC(C)C)[C@@H](OC3CCCCC3)[C@H](C)OC2=O)c1O [Compound 75]
[1]; [10]
  pest or weed control at 100 ppm: 80 to 100%
[1]; [11]
  pest or weed control at 100 ppm: 0 to 80%
[2]; [12]
  pest or weed control at 100 ppm: 80 to 100%
[2]; [13]
  pest or weed control at 100 ppm: 80 to 100%
[3]; [8]
  pest or weed control at 1 µg/leaf: 0 to 80%
[3]; [9]
  pest or weed control at 1 µg/leaf: 0 to 80%

## CCCCCO[C@H]1[C@H](C)OC(=O)[C@@H](NC(=O)c2nccc(OC)c2OCOC(C)=O)COC[C@@H]1OCCCCC [Compound 64]
[1]; [10]
  pest or weed control at 100 ppm: 80 to 100%
[1]; [11]
  pest or weed control at 100 ppm: 80 to 100%
[2]; [12]
  pest or weed control at 100 ppm: 80 to 100%
[2]; [13]
  pest or weed control at 100 ppm: 80 to 100%
[3]; [8]
  pest or weed control at 1 µg/leaf: 0 to 80%
[3]; [9]
  pest or weed control at 1 µg/leaf: 0 to 80%

## C=C(C)CO[C@H]1COC[C@H](NC(=O)OCc2ccccc2)C(=O)OC[C@@H]1OCC(=C)C [Compound 186]
other
  melting point: 66 to 68 °C

## CC(C)CO[C@H]1[C@H](C)OC(=O)[C@@H](N)COC[C@@H]1Oc1ccc(F)cc1.Cl
other
  melting point: 197 to 200 °C

## COc1ccnc(C(=O)N[C@H]2COC[C@H](Oc3ccccc3)[C@@H](Oc3ccccc3)[C@H](C)OC2=O)c1O [Compound 81, 3-hydroxy-4-methoxy-N-((3S,7S,8S,9S)-9-methyl-2-oxo-7,8-diphenoxy-1,5-dioxonan-3-yl)picolinamide]
[1]; [4]
  pest or weed control at 100 ppm: 80 to 100%
[1]; [5]
  pest or weed control at 100 ppm: 80 to 100%
[2]; [7]
  pest or weed control at 100 ppm: 80 to 100%
[2]; [6]
  pest or weed control at 100 ppm: 80 to 100%
[3]; [8]
  pest or weed control at 1 µg/leaf: 80 to 100%
[3]; [9]
  pest or weed control at 1 µg/leaf: 0 to 80%

## COc1ccnc(C(=O)N[C@H]2COC[C@H](OCCCC(F)(F)F)[C@@H](OCCCC(F)(F)F)[C@H](C)OC2=O)c1O [Compound 67]
[1]; [10]
  pest or weed control at 100 ppm: 0 to 80%
[1]; [11]
  pest or weed control at 100 ppm: 0 to 80%
[2]; [12]
  pest or weed control at 100 ppm: 80 to 100%
[2]; [13]
  pest or weed control at 100 ppm: 0 to 80%
[3]; [8]
  pest or weed control at 1 µg/leaf: 0 to 80%
[3]; [9]
  pest or weed control at 1 µg/leaf: 0 to 80%

## CCCCO[C@H]1[C@H](C)OC(=O)[C@@H](NC(=O)OC(C)(C)C)COC[C@@H]1OCc1ccccc1 [Compound 99]
other
  melting point: 51 to 54 °C

## CCCCO[C@H]1COC[C@H](NC(=O)OC(C)(C)C)C(=O)O[C@@H](C)[C@@H]1OC(=O)C(C)C [Compound 113, (3S,6S,7S,8S)-8-butoxy-3-((tert-butoxycarbonyl)amino)-6-methyl-4-oxo-1,5-dioxonan-7-yl isobutyrate]
other
  melting point: 69 to 71 °C

## CC(C)CO[C@H]1COC[C@H](N)C(=O)O[C@@H](C)[C@@H]1Oc1cccc(Cl)c1.Cl
other
  melting point: 168 to 169 °C
